Legend:
[1] = system: Type I interferons (IFNα1, IFNβ1); test: qPCR and ELISA for Type I interferons in NSCLC cell lines; assay type: cell-based, human; conditions: BX795 1 µM, BMS-345541 0.1 µM
Experimental: Total RNA was isolated by TRIzol Reagent (Fisher Scientific). cDNA Reverse Transcription was performed by using High-Capacity cDNA Reverse Transcription Kit (Applied Biosystems). PCR primers were synthesized by IDT (Coralville, IA). Each PCR reaction was carried out in triplicate in a 20 µl volume using SYBR Green Master Mix (Applied Biosystems) for 15 minutes at 95° C. for initial denaturing, followed by 40 cycles of 95° C. for 15 s and 60° C. for 60 s in ViiA 7 Real-Time PCR System (Applied Biosystems). At least three independent experiments were done. Values for each gene were normalized to expression levels of ACTB (β-Actin) mRNA. Primer sequences were as follows.
To detect IFNα and IFNβ levels in medium, cells were cultured in serum free medium and treated with indicated drugs for 48 hours. Supernatant was then collected and concentrated using a Pierce protein concentrator (Thermo-Fisher). To test IFNα and IFNβ in lysates, cell and tumor lysates were extracted using RIPA buffer. Total protein concentrations were determined by Pierce BCA Protein Assay Kit (Fisher Scientific). Then, the levels of IFNα and IFNβ protein were measured by ELISA using human IFNα ELISA kit (41100) and human IFNβ ELISA kit (41440), from PBL Assay Science (Piscataway, NJ) according to the manufacturer’s protocol.
ATCB (β-Actin) expression was the loading control.
IFNα1 and IFNβ1 mRNA levels were detected by qPCR with β-Actin as the loading control.
IFNα1 and IFNβ1 mRNA levels were detected by qPCR. β-Actin was used as the loading control. Data refers to mean ± S.E.M, n=3 independent repeated experiments. One-way ANOVA with Dunnett’s test was used to determine adjusted p value for comparison between untreated and each treated sample. *: p<0.05, **: p<0.01, ***: p<0.001. H1666 is reported to harbor IFNA1 homodeletion in COSMIC (Catalogue Of Somatic Mutations In Cancer)-v90 http://cancer.sanger.ac.uk/cosmic (Updated 5 Sep. 2019), also in Data from a CPRIT (Cancer Prevention & Research Institute of Texas)-funded NGS (next generation sequencing) project by Dr. John Minna, UT Southwestern Medical Center, and Data from Dr. Adi Gazdar, UT Southwestern Medical Center. All other cell lines used in this research were searched on those databases above and confirmed to harbor neither IFNA1 nor IFNB1 homodeletion. Western blots are representative of 3 independent experiments with similar results. Cropped images are shown. Uncropped Western blot images are shown in Source Data.
The protein concentration of IFNα1 and IFNβ1 in cell lysates were measured by ELISA. […]
IFNA1 andIFNB1 mRNA levels were tested by qPCR. IκBα-DN overexpression was detected by Western blot. […]
Referring to FIGS. 14T-U, H1975 cells were treated with 0.1 µM Afatinib for indicated time points, IFNA1 and IFNB1 mRNA levels were detected by qPCR.

[2] = system: EGFR mutant NSCLC cell lines; test: AlamarBlue cell viability assay, EGFR mutant NSCLC cell lines; assay type: cell-based; conditions: for effect on pro-survival effect of exogenous Type I IFNs under EGFR inhibition: EGFR mutant lines, 50 ng/mL IFNα1 or IFNβ1, 72 h, Etanercept 50 µg/mL, BMS-345541 0.1 µM
Experimental: (§1) Cell viability assays were conducted with AlamarBlue Cell Viability Reagent from ThermoFisher (Waltham, MA), following the manufacturer’s protocol. Cells were cultured in Coming (Corning, NY) 96-well black plates with clear bottom and detected by the POLARstar Omega Microplate Reader (BMG LABTECH) (excitation at 544 nm and emission at 590 nm). At least 3 independent experiments were done.

NF-κB = NF-κB luciferase reporter assay, TNF stimulation; assay type: cell-based; conditions: EGFR mutant lines; 10 µg/mL Etanercept 1 h, then 10 ng/mL TNF 24 h
Experimental: (§2) Cells were plated in 48 well dishes followed by plasmid transfection with two reporters detecting activation of IRF3, ISRE-luciferase reporter or IFI27-ISRE luciferase reporter^22, using lipofectamine 2000. A dual-luciferase reporter assay system was used according to the instructions of the manufacturer (Promega, Madison WI). Firefly luciferase activity was measured in the POLARstar Omega Microplate Reader (BMG LABTECH) and normalized based on Renilla luciferase activity. Three independent experiments were done in triplicate.
Referring to FIG. 16G and FIG. 16H, EGFR mutant lines were transfected with an NF-κB reporter for 48 h, followed by 10 µg/mL Etanercept for 1 h and then 10 ng/mL TNF for 24 h, followed by a luciferase assay or Western blot.

TBK1 and IRF3 = test: Western blot for TBK1 and IRF3 activation in NSCLC cell lines; assay type: cell-based; conditions: EGFR mutant cells; 0.1 µM erlotinib and 1 µM BX795, 24 hours
Experimental: (§3) Western blot and immunoprecipitation were performed according to standard protocols. Western blot results are representative of at least 3 independent experiments. EGFR (06-847) antibody was from EMD Millipore (Billerica, MA); p-EGFR (Tyr1068) (2236), p-TBK1 (Ser172) (5483), TBK1 (3504), IKKε (2905), IRF3 (11904), K63-Ub (12930), RIG-I (3743), STAT1 (9172), p-STAT1 (Tyr701) (9167), AhR (83200), LAMIN A/C (4777), STING (3337), p-STING (Ser366) (19781), PD1 (86163), PD-L1 (13684), PD-L2 (82723) and IκBα (4814) antibodies were from Cell Signaling Technology (Danvers, MA); IFNAR1 (sc-7391), IFNGR1 (sc-12755), TNFR1 (sc-8346), and β-Actin (sc-47778) were from Santa Cruz Biotechnology (Dallas, TX); TRIM32 (Mab6515) antibody was from R&D (Minneapolis, MN); p-IRF3 (Ser386) (ab76493) antibody was from Abcam (Cambridge, MA).

IRF3 = test: ISRE / IFI27-ISRE luciferase reporter assay; assay type: cell-based; conditions: EGFR mutant cells; erlotinib 0.1 µM and 1 µM BX795, 24 h
Experimental: as §2

EGFRwt NSCLC cell lines = test: AlamarBlue cell viability assay, EGFRwt NSCLC cell lines; assay type: cell-based; conditions: 72 h
Experimental: as §1
Western blot confirming the silencing of IFNAR1.
Data represents mean ± S.E.M. of three independent repeated experiments. *: p<0.05, **: p<0.01, ***: p<0.001, by two-way ANOVA adjusted by Bonferroni’s correction. Western blots are representative of 3 independent experiments with similar results. Cropped images are shown. Uncropped Western blot images are shown in Source Data.

STAT1 = test: Western blot for total and phosphorylated STAT1; assay type: cell-based; conditions: 0.1 or 1 µM erlotinib with 10 µg/mL Anifrolumab
Experimental: as §3
Cell lysates were collected and subjected to Western blot for detection of total and phosphorylated STAT1 expression. β-Actin was the loading control.

PD-L1 = test: Western blot for PD-L1 in NSCLC cell lines; assay type: cell-based; conditions: HCC827 and H3255; 100 or 10 nM erlotinib 24 h, 10 µg/mL Anifrolumab
Experimental: as §3
PD-1, PD-L1, and PD-L2 expression was detected by Western blot. PD-L1 expression levels were partly shown above. Signalstrength was represented by symbols. -: undetected, +: weak, ++: expressed, +++: strong signals. Western blot and Immunofluorescent staining images are representative of 3 independent experiments with similar results. Cropped images are shown. Uncropped Western blot images are shown in Source Data.

[3] = system: HCC827 derived ER3, ER4A, ER4B, ER5; test: AlamarBlue assay in HCC827-derived erlotinib-resistant lines; assay type: cell-based; conditions: 10 µg/mL Anifrolumab with erlotinib, 72 hours
Experimental: as §1
(§4) IFNAR1 siRNA was confirmed by Western blot.

H1975 cells = test: AlamarBlue assay in H1975 cells; assay type: cell-based; conditions: 10 µg/mL Anifrolumab with 0.1 µM Afatinib, 72 hours
Experimental: as §1, §4

[4] = EGFR mutant cell lines, 0.1 µM erlotinib 24 h, Etanercept 10 µg/mL

Etanercept
effect on erlotinib-induced upregulation of IFN [1, 4]: failed to inhibit erlotinib induced upregulation of type I IFNs
effect on pro-survival effect of exogenous Type I IFNs under EGFR inhibition ([2]; 0.1 µM erlotinib): fails to block the pro-survival effects of IFNs
effect on TNF-induced activation of NF-κB (NF-κB): efficiently blocked TNF-induced activation of NF-κB

Cc1ccc2nc(NCCN)c3ncc(C)n3c2c1 [BMS-345541]
effect on erlotinib-induced upregulation of IFN ([1]; EGFRwt cell lines, 1 µM erlotinib 24 h): blocks EGFR inhibition-induced upregulation of IFN
effect on pro-survival effect of exogenous Type I IFNs under EGFR inhibition ([2]; 0.1 µM erlotinib): fail to abrogate the protective effect of type I IFNs

O=C(NCCCNc1nc(Nc2cccc(NC(=O)N3CCCC3)c2)ncc1I)c1cccs1 [BX-795]
effect on erlotinib-induced upregulation of IFN [1, 4]: completely suppressed erlotinib-induced upregulation of IFN
combination with EGFR inhibition in cell viability assays ([2]; four EGFR mutant cell lines, 0.01 µM erlotinib and 1 µM BX795, 72 hours): synergized with EGFR inhibition
effect on EGFR inhibition-induced IRF3 phosphorylation (TBK1 and IRF3): loss of EGFR inhibition-induced IRF3 phosphorylation
effect on erlotinib-induced IRF3 transcriptional activity (IRF3): loss of erlotinib-induced IRF3 transcriptional activity

B1: IFNα: Recombinant human IFNα1, exogenous Type I interferon (protein, UniProt P01562 24-189, looked up)
Interferon alpha-1/13: CDLPETHSLDNRRTLMLLAQMSRISPSSCLMDRHDFGFPQEEFDGNQFQKAPAISVLHELIQQIFNLFTTKDSSAAWDEDLLDKFCTELYQQLNDLEACVMQEERVGETPLMNADSILAVKKYFRRITLYLTEKKYSPCAWEVVRAEIMRSLSLSTNLQERLRRKE
protection from erlotinib-induced cell death ([2]; EGFR mutant cell lines, 0.1 µM erlotinib, IFNα1 or IFNβ1 50 ng/mL, 72 h): protects NSCLC cells with mutant EGFR activating from cell death

B2: Anifrolumab: monoclonal antibody directed against IFNAR that inhibits the binding of Type I IFNs to its receptor (antibody, chains of the INN, looked up)
heavy: EVQLVQSGAEVKKPGESLKISCKGSGYIFTNYWIAWVRQMPGKGLESMGIIYPGDSDIRYSPSFQGQVTISADKSITTAYLQWSSLKASDTAMYYCARHDIEGFDYWGRGTLVTVSSASTKGPSVFPLAPSSKSTSGGTAALGCLVKDYFPEPVTVSWNSGALTSGVHTFPAVLQSSGLYSLSSVVTVPSSSLGTQTYICNVNHKPSNTKVDKRVEPKSCDKTHTCPPCPAPEFEGGPSVFLFPPKPKDTLMISRTPEVTCVVVDVSHEDPEVKFNWYVDGVEVHNAKTKPREEQYNSTYRVVSVLTVLHQDWLNGKEYKCKVSNKALPASIEKTISKAKGQPREPQVYTLPPSREEMTKNQVSLTCLVKGFYPSDIAVEWESNGQPENNYKTTPPVLDSDGSFFLYSKLTVDKSRWQQGNVFSCSVMHEALHNHYTQKSLSLSPG
light: EIVLTQSPGTLSLSPGERATLSCRASQSVSSSFFAWYQQKPGQAPRLLIYGASSRATGIPDRLSGSGSGTDFTLTITRLEPEDFAVYYCQQYDSSAITFGQGTRLEIKRTVAAPSVFIFPPSDEQLKSGTASVVCLLNNFYPREAKVQWKVDNALQSGNSQESVTEQDSKDSTYSLSSTLTLSKADYEKHKVYACEVTHQGLSSPVTKSFNRGEC
sensitivity to erlotinib (cell viability) (EGFRwt NSCLC cell lines; EGFRwt lines with Ros1 mutation, EML4/ALK fusion, Met amplification, Braf mutation, 10 µg/mL Anifrolumab): resulted in sensitivity to erlotinib
sensitivity to erlotinib (cell viability) (EGFRwt NSCLC cell lines; resistant EGFRwt/KRas cell lines, 1 µM erlotinib with 10 µg/mL Anifrolumab): enhanced sensitivity to erlotinib
effect on erlotinib induced activation of STAT1 (STAT1): blocks erlotinib induced activation of STAT1
effect on erlotinib-induced upregulation of PD-L1 (PD-L1): abrogated
sensitivity to erlotinib in secondary resistant lines [3]: restore sensitivity to erlotinib
sensitivity to afatinib (H1975 cells): rendered sensitive to afatinib

— US20230119324A1, “EGFR INHIBITION TRIGGERS AN ADAPTIVE RESPONSE BY CO-OPTING ANTIVIRAL SIGNALING PATHWAYS IN LUNG CANCER” (The United States Government as represented by the …, priority 2020, published 2023)
